Series [1] has as its system Nrf2. Particulars: SFN 10 μM for 6 hr. The protocol: (§1) Cells were maintained in DMEM or RPMI supplemented with 10% Fetal Bovine Serum and gentamicin. Cell lines expressing rtTA were kept under Neomycin selection (400 ug/mL). Cell lines expressing dox inducible Nrf2 constructs remained under Hygromycin selection (600 ug/mL). […] Viability in the presence of all compounds was assessed by cell titer glo (Promega #G7570) and trypan blue exclusion on a Countess II automated cell counter (Life Technologies). For clonogenic and low-density assays, cells were stained with Crystal Violet solution (25% Methanol 75% H20). For cell counts after DMF treatment cells were fixed with 4% paraformaldehyde for 15 minutes at 4 C. Cells were then washed in ice cold PBS and then stained with Hoechst DNA stain. Plates were quantified using a Tecan infinite M200 Pro plate reader or a SpectraMax M5 Miroplate reader (Molecular Devices).
Cells were lysed in 250 μL ice-cold RIPA buffer (Pierce, #89900) supplemented with 1 × Complete Mini inhibitor mixture (Roche, #11 836 153 001) and mixed on a rotator at 4° C. for 30 minutes. The protein concentration of the cell lysates was quantified using the Bio-Rad DC Protein Assay (Catalog #500-0114). 50-80 μg of total protein was separated on 4-12% Bis-Tris gradient gels (Bio-Rad) by SDS-PAGE and then transferred to nitrocellulose membranes. […]
RNA was collected from cells as before (Papagiannakopoulos et al. (2016, Cell Metab 24, 324-331, doi:10.1016/j.cmet.2016.07.001) with RNeasy plus mini kit (Qiagen), sequenced with X analyzed with YZ. For Real Time qPCR analysis, complementary DNA (cDNA) was synthesized from RNA with the High Capacity cDNA Reverse Transcription Kit (Applied Biosystems #4368814). Genes Slc7a11, Gclc, Hmox1, and Nqo1 were analyzed by quantitative reverse transcription polymerase chain reaction on LightCycler 480 II (Roche). RT qPCR primers (Supplementary Sequences).

The test system of the next series is KPK cell lines. The series is described as follows: Viability/growth of KPK (Keap1 loss) cell lines compared to KP (cell titer glo, trypan blue, crystal violet). Format: cell-based, mouse. The protocol:
as §1
For orientation: In ATP-based viability assays light output follows the ATP content of the culture.

Series [2] relates to KP, KPN and KPK cell lines. As to the kind of experiment: Viability of isogenic cell line panel treated with oxidative stress inducers (cell-titer glo). Format: cell-based, mouse. Particulars: 72 hours of drug treatment. The protocol: as §1
A further series deals with KPN-ix cell lines. As to the kind of experiment: BSO dose response in KPN-ix cells with doxycycline inducible GOF-Nrf2. Format: cell-based, mouse. The protocol: as §1
A further series relates to glutathione (GSH). As to the kind of experiment: Glutathione measurement (GSH/GSSG-Glo) after BSO. Format: cell-based, mouse. As for the experimental part: ROS in cultured cells were measured by incubating […] with 5 μM CM-H2DCFDA (C6827, Life Technologies) for 30 min at 37° C. DCF fluorescence was acquired on the Attune NxT (ThermoFisher) flow cytometer and analyzed using FlowJo software (Tree Star). Reduced (GSH) and oxidized glutathione (GSSG) was measured with a GSH/GSSG-Glo Assay kit (V6611, Promega) for the indicated amount of time.

For the next series, the system named is KP-ix cells. The series is described as follows: Viability counts of KP-ix cells (doxycycline inducible GOF-Nrf2) with CB-839. Format: cell-based, mouse. Particulars: CB-839 250 nM, 72 hours. As for the experimental part:
as §1

Another series has as its system KP-derived tumors. The series is described as follows: CB-839 treatment of KP-derived subcutaneous and orthotopic tumors in immunodeficient animals. Format: in vivo, mouse. The note with it: subcutaneous and orthotopic transplants; 200 mg/kg CB-839 twice a day. The protocol: (§2) Animals were treated as before (Davidson et al. 2016, Cell Metab 23:517-528, doi: 10.1016/j.cmet.2016.01.007) with 200 mg/kg CB-839 or vehicle twice a day after tumor establishment phase. The vehicle contained 25% (w/v) hydroxypropyl-β-cyclodextrin in 10 mmol/L citrate (pH 2.0), and CB-839 was formulated at 20 mg/mL for a final dosing volume of 10 mL/kg.
(§3) It was next asked if increased glutamine utilization in KPK cell lines could be a druggable metabolic liability. […] Consistently, a panel of human lung cancer cells containing KEAP1 mutations or GOF mutations in NRF2 were sensitive to glutaminase inhibition while KEAP1 WT cells were largely resistant (FIG. 9C and FIG. 10B). […] To investigate the therapeutic potential of targeting glutaminase in Keap mutant tumors in vivo, KP and KPK cells were transplanted subcutaneously and orthotopically (lung) in immunodeficient animals. Once tumors had established, treatment was initiated with either vehicle or CB-839, an orally bioavailable glutaminase inhibitor in phase I clinical trials for KRAS mutant NSCLC (FIG. 9E).

Series [3] concerns KPK-derived subcutaneous and orthotopic tumors. The series is described as follows: CB-839 treatment of KPK-derived subcutaneous and orthotopic tumors in immunodeficient animals. Format: in vivo, mouse. The protocol: as §2, §3
A further series concerns T cell. The series is described as follows: Impact of CB839 on T cell function (data not shown). Format: cell-based.
The test system of series [4] is Nrf2. As to the kind of experiment: Western blot for Nrf2 after oxidative stress inducer DMF in isogenic KP/KPK cells. Format: cell-based, mouse. Particulars: control (KP) cells; 6 hour DMF treatment. An excerpt: To perform in vitro functional characterization of and Keap1, isogenic cell lines were generated from a Kras^LSL-G12D/+; p53^−/− C57B6 GEMM-derived cell line using the CRISPR/Cas9 and sgRNAs against Keap1. LOF of the gene was validated by western blot analysis in basal conditions and in the presence of an oxidative stress inducer, dimethyl fumarate (DMF), which is known to deplete the cellular glutathione pool and induce Nrf2 activation (Sullivan et al., “The Proto-oncometabolite Fumarate Binds Glutathione to Amplify ROS-Dependent Signaling,” Molecular Cell 51:236-248 (2013), which is hereby incorporated by reference in its entirety). It was observed that Nrf2 is induced in control cells in response to 6 hour DMF treatment. Keap1 LOF leads to a robust increase of Nrf2 even in the absence of DMF (FIG. 13).
Background: A western blot detects proteins with antibodies after separation by electrophoresis.

A further series has as its system KPN cells. The series is described as follows: Viability of KPN (Nrf2 loss) cells under oxidative stress agents. Format: cell-based, mouse. The note with it: KPN cells treated with oxidative stress agents (BSO, AUR, ERA). As for the experimental part: as §1
A further series deals with GPD2. Particulars: in vivo; cited from earlier work.
For series [5] the following is noted: intraperitoneal, 50 mg/kg daily over 30 days; cited from earlier work.

Structures can show the parent of a compound that is named as a salt. Where two headings read alike, the source gives them in different places.

`C[S+]([O-])CCCCN=C=S` (racemic) [Sulforaphane, D,L-Sulforaphane]: the “Nrf2 protein levels and expression of target genes” value in the series on Nrf2 [1] (KP cells) is “stabilized Nrf2 protein levels and expression of target genes”; in the series with Nrf2 [1] (KP cells, listed as SFN), “accumulation of Nrf2 occurs only in the KP samples”; with Nrf2 [1] (KPK or KPN cells, listed as SFN), “not further stabilized”.
Consider `O=CC[C@@H](O)[C@H](O)[C@H](O)CO` [2-deoxy-D-glucose], for which, in the series with KPK cell lines (KPK compared to KP cells, 5 mM 2DG for 72 h), the “sensitivity to glycolytic inhibitor” value was “increased sensitivity”.
`CCCCS(=N)(=O)CCC(N)C(=O)O` [BSO, L-Buthionine-sulfoximine]: the “genotype-specific sensitivity (cell viability)” value in series [2] was “distinct genotype-specific sensitivities”. The “BSO-mediated loss of viability upon induction of GOF-Nrf2” value in the series with KPN-ix cell lines (72 hours of dox induction) was “rescued”. In addition, the “IC50 of BSO” value in the series with KPN-ix cell lines (KPN-ix +dox versus -dox, 72 hours) is “increase”. Further, in the series with glutathione (GSH) (KPK compared to KP clones, 100 μM BSO), the “levels of GSH and viability” value was “maintain measurable levels of GSH and viability”. The GSH pools entry with glutathione (GSH) (KPN clones, after 12 hours of BSO treatment (100 μM)) is reported as “rapid exhaustion of GSH pools”. Besides, in the series with glutathione (GSH) (panel of isogenic cell lines (KP, KPN, KPK)), the “reduced glutathione (GSH): oxidized glutathione (GSSG) ratio” value is given as “stark contrast”.
On to `O=C(Cc1cccc(OC(F)(F)F)c1)Nc1ccc(CCCCc2nnc(NC(=O)Cc3ccccn3)s2)nn1` [CB-839], for which the “sensitivity to glutaminase inhibitors” value in the series with KPK cell lines (KPK compared to KP cell lines, 72 hours) is “far more sensitive”. In the series on KP-ix cells, the “sensitivity to CB-839 upon induction of GOF-Nrf2” value is “robust sensitivity”. Also, in the series with KP-derived tumors, the “tumor response to treatment” value was “no response”. Moreover, the final tumor weights entry in series [3] (200 mg/kg CB-839 twice a day versus vehicle) is given as “smaller final tumor weights”. Also, in series [3] (subcutaneous and orthotopic transplants, 200 mg/kg CB-839 twice a day), the “tumor growth over the course of the experiment” value is recorded as “dramatic stunted growth”. For the same compound, the “impact on T cell function” value with T cell is reported as “does not negatively impact T cell function”.
As to `COC(=O)/C=C/C(=O)OC` [DMF, Dimethyl fumarate], in the series on Nrf2 [4], the “Nrf2 induction (western blot)” value is “induced”.
For the compound `CC(=O)N[C@@H](CS)C(=O)O` [N-acetyl cysteine, N-acetyl-L-cysteine], the “rescue of loss of viability by antioxidants” value with KPN cells was “rescued”.
Same read-out and setting: in the case of `Cc1c(C)c2c(c(C)c1O)CCC(C)(C(=O)O)O2` (stereo not shown) [Trolox] it was “rescued”.
For `CC(=O)OC[C@H]1O[C@@H]([S-])[C@H](OC(C)=O)[C@@H](OC(C)=O)[C@@H]1OC(C)=O.CCP(CC)CC.[Au+]` [auranofin, Auranofin], the “genotype-specific sensitivity (cell viability)” value in series [2] is given as “distinct genotype-specific sensitivities”.
Take `CN(C)C(=N)N=C(N)N` [metformin]: the GPD2 enzymatic activity entry with GPD2 is “inhibits”. Moreover, in series [5], the toxicity result is on record as “no toxicity”.

The record behind these values is patent publication US20240261245A1, “METHODS OF TREATING CANCERS HAVING A DEREGULATED NRF2/KEAP1 PATHWAY” (New York University, priority 2017, published 2024).
